Numbers after ± are expanded uncertainties.
Details: Fluid (supercritical or subcritical phases), Coaxial cylinder method

CCC [propane]
thermal conductivity [W/m/K]
Details	370.45 K	371.05 K
2710 kPa	–	0.03205 ± 0.0015
3100 kPa	–	0.03344 ± 0.0015
3375 kPa	–	0.03463 ± 0.0016
3452 kPa	0.03558 ± 0.0016	–
3487 kPa	0.0359 ± 0.0016	–
3655 kPa	–	0.03745 ± 0.0017
3770 kPa	0.03805 ± 0.0017	–
3856 kPa	0.03938 ± 0.0017	–
3900 kPa	–	0.04056 ± 0.0018
3986 kPa	0.04204 ± 0.0018	–
4042 kPa	0.04385 ± 0.0019	–
4095 kPa	–	0.04417 ± 0.0019
4105 kPa	0.04623 ± 0.0019	–
4155 kPa	–	0.04633 ± 0.002
4170 kPa	0.05102 ± 0.0021	–
4190 kPa	0.05329 ± 0.0023	–
4200 kPa	0.055 ± 0.0024	–
4205 kPa	0.05577 ± 0.0024	–
4215 kPa	–	0.04915 ± 0.0021
4217 kPa	0.05902 ± 0.0026	–
4224 kPa	0.06133 ± 0.0026	–
4227 kPa	0.06249 ± 0.0028	–
4232 kPa	0.06383 ± 0.0029	–
4235 kPa	–	0.0519 ± 0.0022
4241 kPa	0.06723 ± 0.0033	–
4244 kPa	0.06856 ± 0.004	–
4245 kPa	0.06879 ± 0.0027	–
4250 kPa	0.07121 ± 0.0044	–
4252 kPa	–	0.05394 ± 0.0024
4255 kPa	0.0743 ± 0.0044	–
4260 kPa	0.0774 ± 0.0047	–
4265 kPa	0.08106 ± 0.0042	0.05669 ± 0.0026
4270 kPa	0.08804 ± 0.0041	–
4275 kPa	0.09622 ± 0.0044	–
4276 kPa	–	0.05854 ± 0.0028
4280 kPa	0.1118 ± 0.005	–
4284 kPa	–	0.06121 ± 0.0033
4285 kPa	0.1252 ± 0.0054	–
4289 kPa	–	0.06357 ± 0.0037
4290 kPa	0.1423 ± 0.006	–
4295 kPa	0.156 ± 0.0065	0.06602 ± 0.0041
4300 kPa	0.1452 ± 0.0058	–
4301 kPa	–	0.06867 ± 0.0039
4305 kPa	0.1291 ± 0.005	–
4308 kPa	–	0.07332 ± 0.0036
4310 kPa	0.1181 ± 0.0046	–
4313 kPa	–	0.07659 ± 0.0034
4315 kPa	0.1061 ± 0.0041	–
4318 kPa	–	0.08141 ± 0.0035
4319 kPa	–	0.08406 ± 0.0036
4320 kPa	0.101 ± 0.0039	–
4322 kPa	–	0.08836 ± 0.0037
4324 kPa	–	0.09107 ± 0.0037
4325 kPa	0.09628 ± 0.0036	0.09395 ± 0.0037
4326 kPa	–	0.09568 ± 0.0038
4328 kPa	–	0.09934 ± 0.0039
4329 kPa	–	0.1013 ± 0.0039
4330 kPa	0.09201 ± 0.0035	–
4331 kPa	–	0.1054 ± 0.0041
4332 kPa	–	0.1075 ± 0.0041
4334 kPa	–	0.1104 ± 0.0042
4335 kPa	0.08809 ± 0.0035	–
4336 kPa	–	0.114 ± 0.0043
4337 kPa	–	0.1159 ± 0.0043
4338 kPa	–	0.1172 ± 0.0043
4339 kPa	–	0.1178 ± 0.0043
4340 kPa	0.08122 ± 0.0036	0.1185 ± 0.0044
4342 kPa	–	0.1192 ± 0.0044
4343 kPa	–	0.1192 ± 0.0044
4344 kPa	–	0.1192 ± 0.0044
4345 kPa	0.07814 ± 0.0038	0.1185 ± 0.0043
4346 kPa	–	0.1178 ± 0.0043
4347 kPa	–	0.1159 ± 0.0043
4349 kPa	–	0.1121 ± 0.0041
4350 kPa	0.07669 ± 0.0033	–
4351 kPa	–	0.1081 ± 0.004
4354 kPa	–	0.1028 ± 0.0038
4355 kPa	0.07528 ± 0.0032	–
4356 kPa	–	0.09934 ± 0.0037
4358 kPa	–	0.09657 ± 0.0036
4360 kPa	0.07393 ± 0.003	0.09395 ± 0.0035
4361 kPa	–	0.09311 ± 0.0035
4365 kPa	–	0.08989 ± 0.0034
4367 kPa	–	0.08836 ± 0.0033
4370 kPa	–	0.08616 ± 0.0032
4375 kPa	–	0.08406 ± 0.0032
4377 kPa	0.07217 ± 0.0029	–
4383 kPa	–	0.08141 ± 0.0031
4387 kPa	–	0.08015 ± 0.0031
4392 kPa	–	0.07865 ± 0.003
4396 kPa	–	0.07776 ± 0.003
4400 kPa	0.07099 ± 0.0028	–
4402 kPa	–	0.07633 ± 0.003
4408 kPa	–	0.07494 ± 0.003
4414 kPa	–	0.07363 ± 0.003
4420 kPa	0.07014 ± 0.0027	0.07231 ± 0.003
4440 kPa	–	0.07105 ± 0.0028
4485 kPa	–	0.06921 ± 0.0027
4560 kPa	0.06814 ± 0.0026	–
4580 kPa	0.06769 ± 0.0026	–
4800 kPa	0.06654 ± 0.0026	–
5000 kPa	0.06717 ± 0.0026	–
5500 kPa	0.06784 ± 0.0026	–
5550 kPa	0.06791 ± 0.0026	–
5760 kPa	0.06812 ± 0.0026	–
6000 kPa	0.06874 ± 0.0027	–
6500 kPa	0.06997 ± 0.0027	–
7000 kPa	0.07091 ± 0.0027	–
7500 kPa	0.07178 ± 0.0028	–
8000 kPa	0.07277 ± 0.0028	–
8500 kPa	0.07381 ± 0.0028	–
9000 kPa	0.07421 ± 0.0028	–
9500 kPa	0.07545 ± 0.0029	–
10000 kPa	0.07572 ± 0.0029	–
10500 kPa	0.07624 ± 0.0029	–
11000 kPa	0.07677 ± 0.0029	–
11200 kPa	0.07735 ± 0.0029	–
11300 kPa	0.07645 ± 0.0029	–
15100 kPa	0.08094 ± 0.0031	–

Reference: the NIST ThermoML archive (doi:10.1021/je500395f)
